From patent US10676485B2, “Macrocyclic MCL-1 inhibitors and methods of use” (AbbVie Inc., priority 2017, dated 2020)
Where two headings read alike, the source gives them in different places.

Legend:
GST-MCL-1 = GST-MCL-1 (Homo sapiens (Human), UniProt Q07820); experiment: TR-FRET MCL-1 binding assay (competition with probe F-Bak)
Procedure, shortened: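 Compounds as 11 three-fold dilutions from 25 μM with GST-MCL-1, F-Bak probe and Tb-anti-His antibody, 2 h at room temperature. TR-FRET at 340 nm excitation, 520/525 nm (F-Bak) and 495/510 nm (Tb) emission. Run without human serum and with 10% HS.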

[1] = tested on: AMO-1 human multiple myeloma tumor cell line; experiment: AMO-1 cell viability assay (CellTiter-Glo); assay type: cell-based; conditions: AMO1, read-out: AMO-1 Viability IC50 (μM), 10% FBS, 24 hours of compound treatment
AMO-1 xenograft = AMO-1 xenograft model of multiple myeloma; assay type: in vivo; conditions: Mus musculus, AMO1, 25 mg/kg/day, IP, QDx1, SCID/bg mice; for change in vivo at 25 mg/kg: read-out: TGD (%); for inhibition in vivo at 25 mg/kg: read-out: TGImax (%)
Experimental: Tumors were size matched at approximately 200 mm^3. […] Tumor volume was estimated two to three times weekly. […] Mice were euthanized when tumor volume reached 3,000 mm3 or skin ulcerations occurred. Eight mice were housed per cage. Food and water were available ad libitum.
Tumor growth inhibition is calculated by 100*(1−Tv/Cv) where Tv and Cv are the mean tumor volumes of the treated and control groups, respectively.

[2] = tested on: NCI-H929 human multiple myeloma tumor cell line; experiment: NCI-H929 cell viability assay (CellTiter-Glo); assay type: cell-based; conditions: NCI-H929, read-out: H929 Viability IC50 (μM), 10% FBS, 24 hours of compound treatment
Experimental: In one exemplary set of conditions, NCI-H929 or AMO-1 (ATCC. Manassas, Va.) were plated 4.000 cells per well in 384-well tissue culture plates (Corning. Corning, N.Y.) in a total volume of 25 μL RPMI tissue culture medium supplemented with 10% fetal bovine serum (Sigma-Aldrich, St. Louis, Mo.) and treated with a 3-fold serial dilution of the compounds of interest with a Labcyte Echo from a final concentration of 10 μM to 0.0005 μM. Each concentration was tested in duplicate at least 3 independent times. A luminescent signal proportional to the number of viable cells following 24 hours of compound treatment was determined using the CellTiter-Glo® Luminescent Cell Viability Assay according to the manufacturer's recommendations (Promega Corp., Madison, Wis.). The plates were read in a Perkin Elmer Envision using a Luminescence protocol. To generate dose response curves the data is normalized to percent viability by setting the averages of the staurosporine (10 uM) and DMSO only control wells to 0% and (00)% viability respectively. The IC50 values for the compounds are generated by fitting the normalized data with Accelrys Assay Explorer 3.3 to a sigmoidal curve model using linear regression.

[3] = read-out: MCL-1 Binding Ki (nM, 10% HS), in the presence of 10% HS
[4] = without HS, read-out: MCL-1 Binding Ki

Chain of GST-MCL-1 (Q07820 whole entry): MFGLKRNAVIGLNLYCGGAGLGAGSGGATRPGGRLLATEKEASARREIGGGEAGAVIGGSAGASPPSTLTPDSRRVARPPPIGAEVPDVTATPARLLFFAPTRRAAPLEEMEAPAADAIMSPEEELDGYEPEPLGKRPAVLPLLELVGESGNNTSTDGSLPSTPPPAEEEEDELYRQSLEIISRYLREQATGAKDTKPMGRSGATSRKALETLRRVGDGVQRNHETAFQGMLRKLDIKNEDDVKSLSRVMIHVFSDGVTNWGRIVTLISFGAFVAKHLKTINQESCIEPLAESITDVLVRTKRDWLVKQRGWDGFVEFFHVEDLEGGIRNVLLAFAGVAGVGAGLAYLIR

Row | Compound | Ki (GST-MCL-1; [3]) | Ki (GST-MCL-1; [4]) | IC50 [1] | change in vivo at 25 mg/kg (AMO-1 xenograft) | inhibition in vivo at 25 mg/kg (AMO-1 xenograft) | IC50 [2]
1 | Cc1c(Cl)c2c(Cl)c(C)c1-c1c(-c3ccc(F)cc3)sc3ncnc(c13)O[C@@H](C(=O)O)Cc1cc(ccc1OCc1ccnc(-c3ccccc3OCC3COC(C)(C)O3)n1)OC[C@@H](CN1CCN(C)CC1)O2 (stereo in doubt) [Example 3, (7R,16R)-19,23-dichloro-10-{[2-(2-{[(4R)-2,2-dimethyl-1,3-dioxolan-4-yl]methoxy}phenyl)pyrimidin-4-yl]methoxy}-1-(4-fluorophenyl)-20,22-dimethyl-16-[(4-methylpiperazin-1-yl)methyl]-7,8,15,16-tetrahydro-18,21-etheno-13,9-(metheno)-6,14,17-trioxa-2-thia-3,5-diazacyclononadeca[1,2,3-cd]indene-7-carboxylic acid] | 0.365 nM | 0.033 nM | 0.00026 µM | 58% | 75% | 0.0037 µM
2 | Cc1c(Cl)c2c(Cl)c(C)c1-c1c(-c3ccc(F)cc3)sc3ncnc(c13)O[C@@H](C(=O)O)Cc1cc(ccc1OCc1ccnc(-c3ccc(OC[C@H]4COC(C)(C)O4)cc3)n1)OC[C@@H](CN1CCN(C)CC1)O2 [Example 1, (7R,16R)-19,23-dichloro-10-{[2-(4-{[(4S)-2,2-dimethyl-1,3-dioxolan-4-yl]methoxy}phenyl)pyrimidin-4-yl]methoxy}-1-(4-fluorophenyl)-20,22-dimethyl-16-[(4-methylpiperazin-1-yl)methyl]-7,8,15,16-tetrahydro-18,21-etheno-13,9-(metheno)-6,14,17-trioxa-2-thia-3,5-diazacyclononadeca[1,2,3-cd]indene-7-carboxylic acid] | 0.582 nM | 0.042 nM | 0.00031 µM | 133% | 95% | 0.00502 µM
3 | Cc1c(Cl)c2c(Cl)c(C)c1-c1c(-c3ccc(F)cc3)sc3ncnc(c13)O[C@@H](C(=O)O)Cc1cc(ccc1OCc1ccnc(C3=CC[C@](F)(COC[C@@H]4COCCO4)CC3)n1)OC[C@@H](CN1CCN(C)CC1)O2 [Example 45, (7R,16R)-19,23-dichloro-10-({2-[(4S)-4-({[(2S)-1,4-dioxan-2-yl]methoxy}methyl)-4-fluorocyclohex-1-en-1-yl]pyrimidin-4-yl}methoxy)-1-(4-fluorophenyl)-20,22-dimethyl-16-[(4-methylpiperazin-1-yl)methyl]-7,8,15,16-tetrahydro-18,21-etheno-13,9-(metheno)-6,14,17-trioxa-2-thia-3,5-diazacyclononadeca[1,2,3-cd]indene-7-carboxylic acid] | 0.16 nM | 0.012 nM | 0.000249 µM |  |  | 0.000258 µM
4 | Cc1c(Cl)c2c(Cl)c(C)c1-c1c(-c3ccc(F)cc3)sc3ncnc(c13)O[C@@H](C(=O)O)Cc1cc(ccc1OCc1ccnc([C@H]3CC[C@@](F)(COC[C@@H]4COCCO4)CC3)n1)OC[C@@H](CN1CCN(C)CC1)O2 [Example 46, (7R,16R)-19,23-dichloro-10-({2-[(1S,4r)-4-({[(2S)-1,4-dioxan-2-yl]methoxy}methyl)-4-fluorocyclohexyl]pyrimidin-4-yl}methoxy)-1-(4-fluorophenyl)-20,22-dimethyl-16-[(4-methylpiperazin-1-yl)methyl]-7,8,15,16-tetrahydro-18,21-etheno-13,9-(metheno)-6,14,17-trioxa-2-thia-3,5-diazacyclononadeca[1,2,3-cd]indene-7-carboxylic acid] | 0.24 nM | 0.022 nM | 0.000579 µM |  |  | 0.000418 µM
5 | Cc1c(Cl)c2c(Cl)c(C)c1-c1c(-c3ccc(F)cc3)sc3ncnc(c13)O[C@@H](C(=O)O)Cc1cc(ccc1OCc1ccnc([C@H]3CC[C@@](F)(COC[C@H]4COCCO4)CC3)n1)OC[C@@H](CN1CCN(C)CC1)O2 [Example 47, (7R,16R)-19,23-dichloro-10-({2-[(1R,4r)-4-({[(2R)-1,4-dioxan-2-yl]methoxy}methyl)-4-fluorocyclohexyl]pyrimidin-4-yl}methoxy)-1-(4-fluorophenyl)-20,22-dimethyl-16-[(4-methylpiperazin-1-yl)methyl]-7,8,15,16-tetrahydro-18,21-etheno-13,9-(metheno)-6,14,17-trioxa-2-thia-3,5-diazacyclononadeca[1,2,3-cd]indene-7-carboxylic acid] | 0.521 nM | 0.0133 nM | 0.000463 µM |  |  | 0.000344 µM
6 | Cc1c(Cl)c2c(Cl)c(C)c1-c1c(C3=CCCC3)sc3ncnc(c13)O[C@@H](C(=O)O)Cc1cc(ccc1OCc1ccnc(C3=CC[C@@](F)(COC[C@H]4COCCO4)CC3)n1)OC[C@@H](CN1CCN(C)CC1)O2 [Example 48, (7R,16R)-19,23-dichloro-1-(cyclopent-1-en-1-yl)-10-({2-[(4R)-4-({[(2R)-1,4-dioxan-2-yl]methoxy}methyl)-4-fluorocyclohex-1-en-1-yl]pyrimidin-4-yl}methoxy)-20,22-dimethyl-16-[(4-methylpiperazin-1-yl)methyl]-7,8,15,16-tetrahydro-18,21-etheno-13,9-(metheno)-6,14,17-trioxa-2-thia-3,5-diazacyclononadeca[1,2,3-cd]indene-7-carboxylic acid] | 0.648 nM | 0.026 nM | 0.000641 µM |  |  | 0.000593 µM
7 | Cc1c(Cl)c2c(Cl)c(C)c1-c1c(-c3ccc(F)cc3)sc3ncnc(c13)O[C@@H](C(=O)O)Cc1cc(ccc1OCc1ccnc([C@H]3CC[C@H](COC[C@@H]4COCCO4)CC3)n1)OC[C@@H](CN1CCN(C)CC1)O2 [Example 49, (7R,16R)-19,23-dichloro-10-({2-[(1S,4r)-4-({[(2R)-1,4-dioxan-2-yl]methoxy}methyl)cyclohexyl]pyrimidin-4-yl}methoxy)-1-(4-fluorophenyl)-20,22-dimethyl-16-[(4-methylpiperazin-1-yl)methyl]-7,8,15,16-tetrahydro-18,21-etheno-13,9-(metheno)-6,14,17-trioxa-2-thia-3,5-diazacyclononadeca[1,2,3-cd]indene-7-carboxylic acid] | 0.128 nM | < 0.01 nM | 0.000172 µM |  |  | 0.000314 µM
8 | Cc1c(Cl)c2c(Cl)c(C)c1-c1c(-c3ccc(F)cc3)sc3ncnc(c13)O[C@@H](C(=O)O)Cc1cc(ccc1OCc1ccnc([C@H]3CC[C@@H](COC[C@H]4COCCO4)CC3)n1)OC[C@@H](CN1CCN(C)CC1)O2 [Example 50, (7R,16R)-19,23-dichloro-10-({2-[(1S,4s)-4-({[(2S)-1,4-dioxan-2-yl]methoxy}methyl)cyclohexyl]pyrimidin-4-yl}methoxy)-1-(4-fluorophenyl)-20,22-dimethyl-16-[(4-methylpiperazin-1-yl)methyl]-7,8,15,16-tetrahydro-18,21-etheno-13,9-(metheno)-6,14,17-trioxa-2-thia-3,5-diazacyclononadeca[1,2,3-cd]indene-7-carboxylic acid] | 0.249 nM | 0.022 nM | 0.000249 µM |  |  | 0.000255 µM
9 | Cc1c(Cl)c2c(Cl)c(C)c1-c1c(-c3ccc(F)cc3)sc3ncnc(c13)O[C@@H](C(=O)O)Cc1cc(ccc1OCc1ccnc([C@H]3CC[C@H](COC[C@H]4COCCO4)CC3)n1)OC[C@@H](CN1CCN(C)CC1)O2 [Example 51, (7R,16R)-19,23-dichloro-10-({2-[(1R,4r)-4-({[(2S)-1,4-dioxan-2-yl]methoxy}methyl)cyclohexyl]pyrimidin-4-yl}methoxy)-1-(4-fluorophenyl)-20,22-dimethyl-16-[(4-methylpiperazin-1-yl)methyl]-7,8,15,16-tetrahydro-18,21-etheno-13,9-(metheno)-6,14,17-trioxa-2-thia-3,5-diazacyclononadeca[1,2,3-cd]indene-7-carboxylic acid] | 0.131 nM | < 0.01 nM | 0.000267 µM |  |  | 0.000299 µM
10 | Cc1c(Cl)c2c(Cl)c(C)c1-c1c(C3CCC3)sc3ncnc(c13)O[C@@H](C(=O)O)Cc1cc(ccc1OCc1ccnc([C@H]3CC[C@H](OC[C@H]4COCCO4)CC3)n1)OC[C@@H](CN1CCN(C)CC1)O2 [Example 52, (7R,16R)-19,23-dichloro-1-cyclobutyl-10-({2-[(1R,4r)-4-{[(2R)-1,4-dioxan-2-yl]methoxy}cyclohexyl]pyrimidin-4-yl}methoxy)-20,22-dimethyl-16-[(4-methylpiperazin-1-yl)methyl]-7,8,15,16-tetrahydro-18,21-etheno-13,9-(metheno)-6,14,17-trioxa-2-thia-3,5-diazacyclononadeca[1,2,3-cd]indene-7-carboxylic acid] | 0.72 nM | < 0.01 nM | 0.000448 µM |  |  | 0.00118 µM
11 | COc1ccccc1-c1ccc(OC[C@@H]2COCCO2)c(COc2ccc3cc2C[C@H](C(=O)O)Oc2ncnc4sc(-c5ccc(F)cc5)c(c24)-c2c(C)c(Cl)c(c(Cl)c2C)O[C@H](CN2CCN(C)CC2)CO3)n1 [Example 53, (7R,16R)-19,23-dichloro-10-{[3-{[(2S)-1,4-dioxan-2-yl]methoxy}-6-(2-methoxyphenyl)pyridin-2-yl]methoxy}-1-(4-fluorophenyl)-20,22-dimethyl-16-[(4-methylpiperazin-1-yl)methyl]-7,8,15,16-tetrahydro-18,21-etheno-9,13-(metheno)-6,14,17-trioxa-2-thia-3,5-diazacyclononadeca[1,2,3-cd]indene-7-carboxylic acid] | 114 nM | 13.7 nM | 0.311 µM |  |  | > 1 µM
